Molecular target: T1, angiotensin-converting enzyme (ACE) (Oryctolagus cuniculus, UniProt P12822)
T1 construct: enzyme solution prepared from rabbit lung acetone powder; tissue Sigma Chemical Co., Ltd., U.S.A; host or cells: rabbit lung (acetone powder)
T1 sequence (P12822 34-1310): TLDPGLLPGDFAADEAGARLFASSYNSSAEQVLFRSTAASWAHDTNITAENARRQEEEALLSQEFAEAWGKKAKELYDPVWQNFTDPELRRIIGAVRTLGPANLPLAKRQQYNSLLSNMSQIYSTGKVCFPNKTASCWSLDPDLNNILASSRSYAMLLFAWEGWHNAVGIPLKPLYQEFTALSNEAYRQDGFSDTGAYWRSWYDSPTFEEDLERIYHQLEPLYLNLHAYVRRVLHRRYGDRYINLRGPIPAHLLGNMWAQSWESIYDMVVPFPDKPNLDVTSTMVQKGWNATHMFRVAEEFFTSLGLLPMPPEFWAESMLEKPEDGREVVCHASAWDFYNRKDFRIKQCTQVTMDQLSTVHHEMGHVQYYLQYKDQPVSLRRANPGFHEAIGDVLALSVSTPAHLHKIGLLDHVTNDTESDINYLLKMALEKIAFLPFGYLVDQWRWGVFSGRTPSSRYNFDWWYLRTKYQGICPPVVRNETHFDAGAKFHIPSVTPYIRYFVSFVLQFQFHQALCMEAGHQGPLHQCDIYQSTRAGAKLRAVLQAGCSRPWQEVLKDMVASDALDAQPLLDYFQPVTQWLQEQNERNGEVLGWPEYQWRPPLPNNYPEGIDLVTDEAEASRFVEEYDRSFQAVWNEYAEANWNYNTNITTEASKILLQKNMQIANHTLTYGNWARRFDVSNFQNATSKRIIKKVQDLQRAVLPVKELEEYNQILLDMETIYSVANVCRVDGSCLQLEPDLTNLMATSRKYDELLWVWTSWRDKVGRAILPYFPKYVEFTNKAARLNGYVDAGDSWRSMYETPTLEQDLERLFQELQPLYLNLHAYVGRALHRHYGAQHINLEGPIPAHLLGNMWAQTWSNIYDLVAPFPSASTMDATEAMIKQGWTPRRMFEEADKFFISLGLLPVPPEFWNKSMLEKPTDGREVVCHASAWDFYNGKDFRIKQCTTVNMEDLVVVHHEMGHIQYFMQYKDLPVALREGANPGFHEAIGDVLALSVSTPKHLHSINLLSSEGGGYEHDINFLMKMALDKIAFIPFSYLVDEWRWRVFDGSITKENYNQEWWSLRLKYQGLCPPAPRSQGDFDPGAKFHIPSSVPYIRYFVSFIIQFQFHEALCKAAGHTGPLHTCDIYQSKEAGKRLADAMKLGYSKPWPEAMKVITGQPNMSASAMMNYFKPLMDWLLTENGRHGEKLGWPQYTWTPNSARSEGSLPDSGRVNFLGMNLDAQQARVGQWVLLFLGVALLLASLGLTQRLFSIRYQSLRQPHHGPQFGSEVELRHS
Experiment: Inhibitory activity against angiotensin-converting enzyme (ACE)
Assay type: biochemical
Details: enzyme from rabbit lung acetone powder; substrate hippuryl-histidyl-leucine; 37° C.; preincubation 10 minutes, reaction 45 minutes
Description: A 100 μl quantity of an enzyme solution prepared from rabbit lung acetone powder (product of Sigma Chemical Co., Ltd., U.S.A.) was mixed with 100 μl of a sample solution. The mixture was gently shaken at 37° C. for 10 minutes. To the reaction mixture was added 100 μl of a solution containing 6.69 mM of hippuryl-histidyl-lecuine (product of Peptide Institute, Inc., Japan) as a substrate. The mixture was reacted at 37° C. for 45 minutes while being shaken. The reaction was terminated by addition of 200 μl of a 1N sulfuric acid to the reaction mixture. Sodium chloride (saturation amount) and diethyl ether (2 ml) were added to the reaction mixture to extract the hippuric acid formed by the reaction. The resulting mixture was vigorously shaken for 15 minutes and centrifuged at 2000 r.p.m. for 5 minutes. A 1.5 ml quantity of the ether layer was separated. After the solvent was distilled off, the residue was redissolved in 1.5 ml of distilled water and the absorbance of 228 nm was measured. A control was prepared by repeating the same procedure as above except that […] of distilled water was used in place of the sample solution.
The inhibitory activity was calculated by deducting the absorbance value of the residue formed by addition of the sample solution from that of the control and the resulting value was divided by the absorbance value of the control and multipled by 100, thereby giving a percent inhibition. The inhibitory activity was expressed as IC50, i.e., the concentration of the same sample solution in the reaction mixture in which concentration 50% inhibition is achieved.

Row | IC50 [nM] | SMILES
1 | 5.21 | CC(N[C@@H](CSC1(C)CCCCC1)C(=O)O)C(=O)N1CCC[C@H]1C(=O)O (stereo partly drawn)
2 | 0.687 | CC(N[C@@H](CSC1Cc2ccccc2C1)C(=O)O)C(=O)N1CCC[C@H]1C(=O)O (stereo partly drawn) [Compound 2]
3 | 1.02 | CC(N[C@@H](CSC1CCCC1)C(=O)O)C(=O)N1CCC[C@H]1C(=O)O (stereo partly drawn) [Compound 3]
4 | 61.1 | CC(N[C@@H](CSCC(=O)NC1CCCC1)C(=O)O)C(=O)N1CCC[C@H]1C(=O)O (stereo partly drawn) [Compound 4]
5 | 342 | CC(N[C@@H](CSCC(=O)NCc1ccccc1)C(=O)O)C(=O)N1CCC[C@H]1C(=O)O (stereo partly drawn) [Compound 5]
6 | 443 | CC(N[C@@H](CSCC(=O)N1CCCCC1)C(=O)O)C(=O)N1CCC[C@H]1C(=O)O (stereo partly drawn) [Compound 6]
7 | 24.1 | CCCCCCCSC[C@H](NC(C)C(=O)N1CCC[C@H]1C(=O)NC(Cc1ccccc1)C(=O)O)C(=O)O (stereo partly drawn) [Compound 7]
8 | 56.3 | CCCCCCCSC[C@H](NC(C)C(=O)N1CCC[C@H]1C(=O)NC(C)C(=O)O)C(=O)O (stereo partly drawn) [Compound 8]
9 | 33.5 | CCCCCCCSC[C@H](NC(C)C(=O)N1CCC[C@H]1C(=O)NC(C(=O)O)C(C)C)C(=O)O (stereo partly drawn) [Compound 9]
